Results from PMC12806164, “Epithelial Heparan Sulfate Promotes Staphylococcus aureus Corneal Infection by Inhibiting Cathelicidins” (Proteoglycan research, 2025).
Like-named read-outs stand apart in the source and are kept apart here.

How the values were obtained:
[1] = ref 44 (LL-37), ref 39 (CAP-18), ref 42 (SMAP-29); cited from earlier work
Description: Next, we examined the dose response to cathelicidins from different species, which can have relatively large differences in primary sequence.

S. aureus USA300 [2] = conditions: 500 cfu S. aureus USA300, 2 h at 37°C, cfu on TSA plates, n = 4
Experimental: Bacterial killing was measured by plating serial dilutions onto TSA plates and counting colonies the following day. Results are shown as % bacterial survival (n = 4). […] Bacterial killing (%) was enumerated by plating serial dilutions onto TSA plates and counting colonies the following day (n = 5). B) Effects of pre-incubating S. aureus with glycosaminoglycans on bacterial killing by cathelicidins were examined by incubating 500 cfu of USA300 without or with 5 μg/ml HS, HP, DS, or CS for 30 min at 37°C. Bacteria were washed three times with buffer, incubated with 0.5 μM CRAMP for 2 h at 37°C, and % bacterial killing was determined by plating serial dilutions of samples (n = 4). […] Images were captured with a fluorescence microscope (Zeiss Axiovert 40 CFL). Quantification of % dead bacteria (out of total bacteria in field) is shown at the bottom. […] S. aureus-associated CRAMP fluorescence was analyzed by flow cytometry.

LL-37 = test: Inhibition by glycosaminoglycans of S. aureus killing by LL-37; assay type: cell-based, human; conditions: 5 μg/mL glycosaminoglycan, 1 μM LL-37, ~500 cfu USA300, phosphate buffer pH 7.4, 2 h at 37°C, n = 6
Experimental: (§1) Samples were plated onto TSA plates, and viable bacteria (cfu) were counted the following day. Data are shown as % bacterial killing, where killing activity in the presence of cathelicidin only represents 100% (n = 6, *p < 0.05, ****p < 0.0001, one-way ANOVA, multiple comparisons).
(§2) (A) Schematics of HS/HP structure. […] (F) BaclightGreen-labeled S. aureus (~400 cfu) was incubated with 0.5 μM CRAMP without or with 5 μg/mL HP, NDS-HP, 2ODS-HP, 6ODS-HP, H, NS-H, or NS2OS-H for 30 min at room temperature. Bacteria were washed, incubated with 10 μg/mL propidium iodide for 15 min at 4°C, and live (green) and dead (red) bacteria were visualized by fluorescence microscopy.
(§3) Late log phase S. aureus USA300 was washed with phosphate buffer (8.2 mM Na2HPO4, 1.8 mM KH2PO4, pH 7.4) and approximately 500 cfu were incubated with cathelicidins with or without excess GAGs for 2 h at 37°C as indicated. Viable bacteria were enumerated by plating onto TSA plates and counting colonies the following day. Results are shown as % bacterial killing, where 100% killing represents data derived from the group of bacteria incubated with cathelicidins only.

CRAMP [3] = test: Inhibition by glycosaminoglycans of S. aureus killing by CRAMP; assay type: cell-based, mouse; conditions: 0.5 μM CRAMP; for Inhibition of S. aureus killing by CRAMP: 5 μg/mL glycosaminoglycan, ~500 cfu USA300, phosphate buffer pH 7.4, 2 h at 37°C, n = 6
Experimental: as §1, §2, §3
(§4) Figure S1. A) CRAMP expression was measured in uninfected Wt corneas or Wt corneas isolated at 4 h post-S. aureus USA300 infection. Briefly, eyes were enucleated, corneas were dissected, and isolated corneas were incubated with 10 mg/ml dispase II overnight at 4°C to peel off the corneal epithelium. Total RNA was purified from the corneal epithelium, and 1 ng of total RNA was analyzed by qRT-PCR for CRAMP or β-actin expression (n = 3, **p < 0.01). […] Bacterial killing was measured by plating serial dilutions onto TSA plates and counting colonies the following day. Results are shown as % bacterial survival (n = 4). Figure S2. […] Bacterial killing (%) was enumerated by plating serial dilutions onto TSA plates and counting colonies the following day (n = 5). B) Effects of pre-incubating S. aureus with glycosaminoglycans on bacterial killing by cathelicidins were examined by incubating 500 cfu of USA300 without or with 5 μg/ml HS, HP, DS, or CS for 30 min at 37°C. Bacteria were washed three times with buffer, incubated with 0.5 μM CRAMP for 2 h at 37°C, and % bacterial killing was determined by plating serial dilutions of samples (n = 4). Figure S3. S. aureus USA300 stained with BaclightGreen was incubated with 0.5 μM CRAMP in the absence or presence of 5 μg/ml HP, NDS-HP, 2ODS-HP, 6ODS-HP, H, NS-H, or NS2OS-H for 30 min at room temperature. Bacteria were washed and incubated with 10 μg/ml propidium iodide for 15 min on ice. Images were captured with a fluorescence microscope (Zeiss Axiovert 40 CFL). Quantification of % dead bacteria (out of total bacteria in field) is shown at the bottom. Figure S4. Alexa 647-conjugated CRAMP (0.5 μM) was incubated with fixed S. aureus USA300 without or with 5 μg/ml of the indicated glycosaminoglycans and chemically-desulfated HP compounds for 1 h at room temperature. S. aureus-associated CRAMP fluorescence was analyzed by flow cytometry. Representative FACS density plots are shown where heparan compounds containing 2-O-sulfated motifs decreased Alexa CRAMP binding by over 79% compared to the control (No GAG), except for NDS-HP where the reduction was approximately 65%. Fig. S5. Relative mRNA levels of A) Ndst1 and B) Sdc1 in the corneal epithelium of Hs2st^fl/fl, Krt12Cre, and Hs2st^fl/fl/Krt12Cre mice (n = 3).

SMAP-29 = test: Inhibition by glycosaminoglycans of S. aureus killing by SMAP-29; assay type: cell-based, sheep; conditions: 5 μg/mL glycosaminoglycan, 0.5 μM SMAP-29, ~500 cfu USA300, phosphate buffer pH 7.4, 2 h at 37°C, n = 6
Experimental: as §1, §2, §3

CAP-18 = test: Inhibition by glycosaminoglycans of S. aureus killing by CAP-18; assay type: cell-based, rabbit; conditions: 5 μg/mL glycosaminoglycan, 0.5 μM CAP-18, ~500 cfu USA300, phosphate buffer pH 7.4, 2 h at 37°C, n = 6
Experimental: as §1, §2, §3

CRAMP [4] = test: Alexa 647-CRAMP binding to fixed S. aureus, inhibition by glycosaminoglycans (flow cytometry); set-up: species or system mouse; conditions: 0.5 μM Alexa 647-conjugated CRAMP; for Decrease of MFI of Alexa-labeled CRAMP binding to S. aureus compared to control: 5 μg/mL glycosaminoglycan, 2% paraformaldehyde-fixed S. aureus USA300, 1 h at room temperature, n = 3; for Reduction of proportion of CRAMP-bound bacteria (Alexa CRAMP binding, FACS density plots) compared to No GAG: 5 μg/ml glycosaminoglycan, fixed S. aureus USA300, 1 h at room temperature, representative plots
Experimental: Alexa 647-conjugated CRAMP (0.5 μM) was incubated with 2% paraformaldehyde-fixed Staphylococcus aureus USA300 without or with 5 μg/mL HP, HS, CS, DS, NDS-HP, 6ODS-HP, or 2ODS-HP for 1 h at room temperature. S. aureus-associated CRAMP fluorescence was analyzed by flow cytometry. Results are shown as % Alexa CRAMP binding (n = 3, ****p < 0.0001).
Alexa 647 fluorophore was conjugated to CRAMP using the Lightning-Link Rapid FluoProbes647H labeling kit following the manufacturer’s instructions. S. aureus USA300 fixed in 2% paraformaldehyde for 20 min was resuspended in 20 μL of phosphate buffer and incubated with 0.5 μM of Alexa 647-labeled CRAMP for 30 min at room temperature without or with glycosaminoglycans. Unbound Alexa 647-labeled CRAMP was removed by washing with phosphate buffer, and Alexa 647-labeled CRAMP bound to bacteria was assessed by flow cytometry.
as §4

CRAMP [5] = test: Alexa 647-CRAMP binding to Affi-Gel HP beads, competition by HP compounds (flow cytometry); set-up: species or system mouse; conditions: 20 μg/mL competitor, 0.5 μM Alexa 647-conjugated CRAMP, 1 h at room temperature, n = 4
Experimental: FIGURE 4 | 2-O-sulfated heparan compounds directly bind to CRAMP with high affinity. Alexa 647-conjugated CRAMP (0.5 μM) was incubated with Affi-Gel HP beads without or with 20 μg/mL of HP, NDS-HP, 2ODS-HP, or 6ODS-HP for 1 h at room temperature. CRAMP fluorescence associated with Affi-Gel HP beads was analyzed by flow cytometry. Results are shown as (A) % CRAMP binding and (B) mean fluorescence intensity (MFI) of CRAMP binding (n = 4, ***p < 0.001, ****p < 0.0001). ITC analyses for CRAMP binding to HP were performed at 25°C using a MicroCal iTC 200 titration calorimetry. The fitted heat curves of titrating CRAMP binding to (C) HP and (D) 2ODS-HP are shown.
Affi-Gel HP beads were washed and resuspended in PBS. Affi-Gel HP beads (20 μL) were incubated with 0.5 μM Alexa 647-labeled CRAMP without or with 20 μg/mL HP, chemically desulfated HP, or chemoenzymatically sulfated H for 1 h at room temperature. Affi-Gel HP beads were washed with PBS, and the Alexa 647-labeled CRAMP bound to them was assessed by flow cytometry.

S. aureus USA300 [6] = test: Pre-incubation of S. aureus with glycosaminoglycans, washing, then killing by cathelicidin; assay type: cell-based, Staphylococcus aureus; conditions: 5 μg/ml glycosaminoglycan pre-incubated with 500 cfu USA300 30 min at 37°C, washed three times, then 0.5 μM CRAMP 2 h at 37°C, n = 4
Experimental: Figure S1. A) CRAMP expression was measured in uninfected Wt corneas or Wt corneas isolated at 4 h post-S. aureus USA300 infection. Briefly, eyes were enucleated, corneas were dissected, and isolated corneas were incubated with 10 mg/ml dispase II overnight at 4°C to peel off the corneal epithelium. Total RNA was purified from the corneal epithelium, and 1 ng of total RNA was analyzed by qRT-PCR for CRAMP or β-actin expression (n = 3, **p < 0.01). […] Bacterial killing was measured by plating serial dilutions onto TSA plates and counting colonies the following day. Results are shown as % bacterial survival (n = 4). Figure S2. […] Bacterial killing (%) was enumerated by plating serial dilutions onto TSA plates and counting colonies the following day (n = 5). B) Effects of pre-incubating S. aureus with glycosaminoglycans on bacterial killing by cathelicidins were examined by incubating 500 cfu of USA300 without or with 5 μg/ml HS, HP, DS, or CS for 30 min at 37°C. Bacteria were washed three times with buffer, incubated with 0.5 μM CRAMP for 2 h at 37°C, and % bacterial killing was determined by plating serial dilutions of samples (n = 4). Figure S3. […] Images were captured with a fluorescence microscope (Zeiss Axiovert 40 CFL). Quantification of % dead bacteria (out of total bacteria in field) is shown at the bottom. […] S. aureus-associated CRAMP fluorescence was analyzed by flow cytometry. […]

| Compound | pI [1] | S. aureus killed (S. aureus USA300 [2]; 0.5 μM peptide) | Inhibition of S. aureus killing by LL-37 (LL-37) | Inhibition of S. aureus killing by CRAMP (CRAMP [3]) | Inhibition of S. aureus killing by SMAP-29 (SMAP-29) | Inhibition of S. aureus killing by CAP-18 (CAP-18) | Decrease of MFI of Alexa-labeled CRAMP binding to S. aureus compared to control (CRAMP [4]) | Reduction of proportion of CRAMP-bound bacteria (Alexa CRAMP binding, FACS density plots) compared to No GAG (CRAMP [4]) | Inhibition of CRAMP binding to HP beads (CRAMP [5]) | S. aureus killed (S. aureus USA300 [2]; 1 μM peptide) | Inhibition of bacterial killing by cathelicidins after pre-incubation with bacteria and washing away (S. aureus USA300 [6]) | Inhibition of bacterial killing by CRAMP, titration study (CRAMP [3]; 5 μg/mL (~0.5 μM) HS, 500 cfu USA300, 2 h at 37°C, n = 5) |
| --- | --- | --- | --- | --- | --- | --- | --- | --- | --- | --- | --- | --- |
| CAP-18 | 11.9 | Greater than 98% |  |  |  |  |  |  |  |  |  |  |
| heparosan |  |  | minimal effect | minimal effect | minimal effect | minimal effect |  |  |  |  |  |  |
| chondroitin sulfate A [CS] |  |  | no significant effect | no significant effect | no significant effect | no significant effect | no effect | not |  |  |  |  |
| 6-O-desulfated HP [6ODS-HP] |  |  | did not alter the ability of HP to significantly inhibit | did not alter the ability of HP to significantly inhibit | did not alter the ability of HP to significantly inhibit | did not alter the ability of HP to significantly inhibit |  |  | over 75% |  |  |  |
| CC[C@H](C)[C@H](NC(=O)[C@H](CCCCN)NC(=O)[C@H](CCC(=O)O)NC(=O)[C@H](CCCCN)NC(=O)[C@H](CO)NC(=O)[C@H](CCCCN)NC(=O)[C@H](CCCNC(=N)N)NC(=O)[C@H](Cc1ccccc1)NC(=O)[C@H](Cc1ccccc1)NC(=O)[C@H](CC(=O)O)NC(=O)CNC(=O)[C@H](CC(C)C)NC(=O)[C@@H](N)CC(C)C)C(=O)NCC(=O)N[C@@H](CCCCN)C(=O)N[C@@H](CCC(=O)O)C(=O)N[C@@H](Cc1ccccc1)C(=O)N[C@@H](CCCCN)C(=O)N[C@@H](CCCNC(=N)N)C(=O)N[C@H](C(=O)N[C@H](C(=O)N[C@@H](CCC(N)=O)C(=O)N[C@@H](CCCNC(=N)N)C(=O)N[C@H](C(=O)N[C@@H](CCCCN)C(=O)N[C@@H](CC(=O)O)C(=O)N[C@@H](Cc1ccccc1)C(=O)N[C@@H](CC(C)C)C(=O)N[C@@H](CCCNC(=N)N)C(=O)N[C@@H](CC(N)=O)C(=O)N[C@@H](CC(C)C)C(=O)N[C@H](C(=O)N1CCC[C@H]1C(=O)N[C@@H](CCCNC(=N)N)C(=O)N[C@H](C(=O)N[C@@H](CCC(=O)O)C(=O)N[C@@H](CO)C(=O)O)[C@@H](C)O)C(C)C)[C@@H](C)CC)C(C)C)[C@@H](C)CC [LL-37] | 10.5 |  |  |  |  |  |  |  |  | Greater than 98% |  |  |
| N-desulfated HP [NDS-HP] |  |  | did not alter the ability of HP to significantly inhibit | did not alter the ability of HP to significantly inhibit | did not alter the ability of HP to significantly inhibit | did not alter the ability of HP to significantly inhibit |  | approximately 65% | over 75% |  |  |  |
| heparan sulfate [HS] |  |  | over 70% | over 70% | over 70% | over 70% |  |  |  |  | did not inhibit | significantly inhibited |
| dermatan sulfate [DS] |  |  | 27% | did not inhibit | did not inhibit | 21% | no effect | not |  |  |  |  |
